The subject of this test is BT20 Cell. As to the kind of experiment: Cancer Cell Lysate Total L-Glutamate Assay. It counts as cell-based. To be noted: Homo sapiens, BT-20, 2 h, total L-glutamate in cell lysate, BT20 cells, 2 hour incubation with test compound. Put shortly: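 BT20 and other cancer lines at ~80% confluence were given fresh L-glutamine-containing medium, then treated with serially diluted compound (0.5% DMSO) for 2 hours at 37° C. Washed cells were lysed by freeze-thaw and sonication. Lysate glutamate was measured via glutamate oxidase/HRP/50 μM Amplex Red fluorescence (ex 530-560, em 585 nm); IC50 by four-parameter logistic fit.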

What is called IC50 is the concentration at which inhibition is half-maximal. A low value points to higher potency.

With `O=C(Cc1ccccn1)Nc1nnc(C[C@@H]2CC[C@H](c3nnc(NC(=O)Cc4ccccn4)s3)C2)s1` (single isomer, unassigned) [Example 2], it took 1 nM to reach half-maximal inhibition (IC50).

In the case of `CC(=O)Nc1nnc(C[C@@H]2CC[C@H](c3nnc(NC(=O)Cc4ccccn4)s3)C2)s1` (single isomer, unassigned) [Example 57, N-{5-[(cis)-3-{[5-(acetylamino)-1,3,4-thiadiazol-2-yl]methyl}cyclopentyl]-1,3,4-thiadiazol-2-yl}-2-(pyridin-2-yl)acetamide], inhibition was half-maximal at 21.4 nM (IC50).

In turn, `CC(=O)Nc1nnc(C2CCC(Cc3nnc(NC(=O)Cc4ccccc4)s3)C2)s1` (racemic) [Example 15, N-[5-({(cis)-3-[5-(acetylamino)-1,3,4-thiadiazol-2-yl]cyclopentyl}methyl)-1,3,4-thiadiazol-2-yl]-2-phenylacetamide] displayed a 50% inhibitory concentration (IC50) of 10.6 nM.

Turning to `CC(C)(C)C(=O)Nc1nnc(CC2CCC(c3nnc(NC(=O)C(C)(C)C)s3)C2)s1` (racemic) [Example 27, (rac)-N-(5-{[(cis)-3-{5-[(2,2-dimethylpropanoyl)amino]-1,3,4-thiadiazol-2-yl}cyclopentyl]methyl}-1,3,4-thiadiazol-2-yl)-2,2-dimethylpropanamide], the IC50 turned out to be 242 nM.

For the compound `CC(C)(C)C(=O)Nc1nnc(C[C@H]2CC[C@@H](c3nnc(NC(=O)C(C)(C)C)s3)C2)s1` (single isomer, unassigned) [Example 28, N-(5-{[(cis)-3-{5-[(2,2-dimethylpropanoyl)amino]-1,3,4-thiadiazol-2-yl}cyclopentyl]methyl}-1,3,4-thiadiazol-2-yl)-2,2-dimethylpropanamide], 3020 nM corresponded to half-maximal inhibition (IC50).

`O=C(Cc1ccccn1)Nc1nnc(C[C@H]2C[C@H](c3nnc(NC(=O)Cc4ccccn4)s3)C2)s1` (single isomer, unassigned) [Example 23, 2-(pyridin-2-yl)-N-{5-[(trans-3-{5-[(pyridin-2-ylacetyl)amino]-1,3,4-thiadiazol-2-yl}cyclobutyl)methyl]-1,3,4-thiadiazol-2-yl}acetamide] had an IC50 of 9.9 nM.

`CC(C)C(=O)Nc1nnc([C@H]2CC3(C[C@H](c4nnc(NC(=O)C(C)C)s4)C3)C2)s1` (stereo partly drawn) [Example 95, N,N′-(spiro[3.3]heptane-2,6-diyldi-1,3,4-thiadiazole-5,2-diyl)bis(2-methylpropanamide)] returned an IC50 of 1.4 nM.

Turning to `CC(=O)Nc1nnc(C2CCC(Cc3nnc(NC(=O)Cc4cnccn4)s3)C2)s1` (racemic) [Example 47, (rac)-N-[5-({(cis)-3-[5-(acetylamino)-1,3,4-thiadiazol-2-yl]cyclopentyl}methyl)-1,3,4-thiadiazol-2-yl]-2-(pyrazin-2-yl)acetamide], it took 512 nM to reach half-maximal inhibition (IC50).

For the compound `Cn1cnc(C(=O)Nc2nnc(C[C@H]3CC[C@@H](c4nnc(NC(=O)Cc5ccccn5)s4)C3)s2)c1` (racemic) [Example 150, (rac)-1-methyl-N-(5-{[(cis)-3-{5-[(pyridin-2-ylacetyl)amino]-1,3,4-thiadiazol-2-yl}cyclopentyl]methyl}-1,3,4-thiadiazol-2-yl)-1H-imidazole-4-carboxamide], 1.5 nM corresponded to half-maximal inhibition (IC50).

For `CC(=O)Nc1nnc([C@@H]2CC[C@H](Cc3nnc(NC(=O)Cc4cn5ccccc5n4)s3)C2)s1` (racemic) [Example 149, (rac)-N-[5-({(cis)-3-[5-(acetylamino)-1,3,4-thiadiazol-2-yl]cyclopentyl}methyl)-1,3,4-thiadiazol-2-yl]-2-(imidazo[1,2-a]pyridin-2-yl)acetamide], the IC50 was found to be 6.9 nM.

As for `CC(C)C(=O)Nc1ccc(CC2CCC(c3nnc(NC(=O)Cc4ccccn4)s3)C2)nn1` (racemic) [Example 76, (rac)-2-methyl-N-(6-{[(cis)-3-{5-[(pyridin-2-ylacetyl)amino]-1,3,4-thiadiazol-2-yl}cyclopentyl]methyl}pyridazin-3-yl)propanamide], the IC50 was found to be 3 nM.

Compound `CC(C)C(=O)Nc1nnc([C@H]2CC[C@@H](Cc3ccc(NC(=O)Cc4ccccn4)nn3)C2)s1` [Example 120, 2-methyl-N-{5-[(1S,3R)-3-({6-[(pyridin-2-ylacetyl)amino]pyridazin-3-yl}methyl)cyclopentyl]-1,3,4-thiadiazol-2-yl}propanamide] returned an IC50 of 0.4 nM.

Turning to `O=C(Cc1ccccc1)Nc1ccc(C[C@H]2C[C@@H](c3nnc(NC(=O)Cc4ccccn4)s3)C2)nn1` (single isomer, unassigned) [Example 118, 2-phenyl-N-{6-[(cis-3-{5-[(pyridin-2-ylacetyl)amino]-1,3,4-thiadiazol-2-yl}cyclobutyl)methyl]pyridazin-3-yl}acetamide], the IC50 was found to be 0.2 nM.

Take `CC(=O)Nc1nnc(CC2CCC(c3nnc(NC(=O)Cc4ccccn4)s3)C2)s1` (racemic) [Example 55, (rac)-N-{5-[(cis)-3-{[5-(acetylamino)-1,3,4-thiadiazol-2-yl]methyl}cyclopentyl]-1,3,4-thiadiazol-2-yl}-2-(pyridin-2-yl)acetamide]: the midpoint of inhibition, the IC50, lay at 391 nM.

`CCC(=O)Nc1ccc(C[C@@H]2CC[C@H](c3nnc(NC(=O)Cc4ccccn4)s3)C2)nn1` (single isomer, unassigned) [Example 79, N-(6-{[(cis)-3-{5-[(pyridin-2-ylacetyl)amino]-1,3,4-thiadiazol-2-yl}cyclopentyl]methyl}pyridazin-3-yl)propanamide] gave an IC50 of 1.1 nM.

In turn, `CC(=O)Nc1nnc(C2CC3(C2)CC(c2nnc(NC(C)=O)s2)C3)s1` (racemic) [Example 141, N,N′-(spiro[3.3]heptane-2,6-diyldi-1,3,4-thiadiazole-5,2-diyl)diacetamide] came in with an IC50 of 298 nM.

Consider `CC(C)C(=O)Nc1ccc([C@H]2C[C@@H](Cc3nnc(NC(=O)Cc4ccccn4)s3)C2)nn1` (single isomer, unassigned) [Example 125, 2-methyl-N-{6-[cis-3-({5-[(pyridin-2-ylacetyl)amino]-1,3,4-thiadiazol-2-yl}methyl)cyclobutyl]pyridazin-3-yl}propanamide], for which the IC50 came to 3.1 nM.

For `O=C(Cc1ccccn1)Nc1nnc([C@@H]2CC[C@H](Cc3nnc(NC(=O)c4ccccc4F)s3)C2)s1` (racemic) [Example 144, (rac)-2-fluoro-N-(5-{[(cis)-3-{5-[(pyridin-2-ylacetyl)amino]-1,3,4-thiadiazol-2-yl}cyclopentyl]methyl}-1,3,4-thiadiazol-2-yl)benzamide], the half-inhibitory concentration (IC50) turned out to be 0.7 nM.

Turning to `CCC(=O)Nc1nnc([C@H]2C[C@@H](Cc3nnc(NC(=O)Cc4ccccn4)s3)C2)s1` (single isomer, unassigned) [Example 105, N-{5-[cis-3-({5-[(pyridin-2-ylacetyl)amino]-1,3,4-thiadiazol-2-yl}methyl)cyclobutyl]-1,3,4-thiadiazol-2-yl}propanamide], the midpoint of inhibition, the IC50, lay at 9.5 nM.

`CC(=O)Nc1nnc(C2CC[C@H](Cc3nnc(NC(=O)Cc4ccccc4)s3)C2)s1` (single isomer, unassigned) [Example 16, N-[5-({(cis)-3-[5-(acetylamino)-1,3,4-thiadiazol-2-yl]cyclopentyl}methyl)-1,3,4-thiadiazol-2-yl]-2-phenylacetamide] registered an IC50 of 399 nM.

`Cc1ccc(CC(=O)Nc2nnc(C[C@H]3C[C@@H](c4nnc(NC(=O)Cc5ccccn5)s4)C3)s2)nc1` (single isomer, unassigned) [Example 111, 2-(5-methylpyridin-2-yl)-N-{5-[(cis-3-{5-[(pyridin-2-ylacetyl)amino]-1,3,4-thiadiazol-2-yl}cyclobutyl)methyl]-1,3,4-thiadiazol-2-yl}acetamide]: it took 1.2 nM to reach half-maximal inhibition (IC50).

The compound `CC(=O)Nc1nnc([C@@H]2CC[C@H](Cc3nnc(NC(=O)Cc4cncnc4)s3)C2)s1` (single isomer, unassigned) [Example 50, N-[5-({(cis)-3-[5-(acetylamino)-1,3,4-thiadiazol-2-yl]cyclopentyl}methyl)-1,3,4-thiadiazol-2-yl]-2-(pyrimidin-5-yl)acetamide] returned an IC50 of 8750 nM.

Take `O=C(Cc1ccccn1)Nc1ccc(C[C@@H]2CC[C@H](c3nnc(Nc4ccccn4)s3)C2)nn1` (single isomer, unassigned) [Example 75, 2-(pyridin-2-yl)-N-[6-({(cis)-3-[5-(pyridin-2-ylamino)-1,3,4-thiadiazol-2-yl]cyclopentyl}methyl)pyridazin-3-yl]acetamide]: it took 1.1 nM to reach half-maximal inhibition (IC50).

Regarding `O=C(Cc1ccccn1)Nc1ccc(C[C@@H]2CC[C@H](c3nnc(NC4CC4)s3)C2)nn1` (single isomer, unassigned) [Example 110, N-[6-({(cis)-3-[5-(cyclopropylamino)-1,3,4-thiadiazol-2-yl]cyclopentyl}methyl)pyridazin-3-yl]-2-(pyridin-2-yl)acetamide], 2.3 nM corresponded to half-maximal inhibition (IC50).

In turn, `Cn1ccc(Nc2nnc(C3CCC(Cc4nnc(NC(=O)Cc5ccccn5)s4)C3)s2)n1` (racemic) [Example 88, (rac)-N-(5-{[(cis)-3-{5-[(1-methyl-1H-pyrazol-3-yl)amino]-1,3,4-thiadiazol-2-yl}cyclopentyl]methyl}-1,3,4-thiadiazol-2-yl)-2-(pyridin-2-yl)acetamide] showed an IC50 of 13 nM.

`O=C(Cc1ccccn1)Nc1nnc(C[C@H]2C[C@@H](c3nnc(NC(=O)Cc4ccccn4)s3)C2)s1` (single isomer, unassigned) [Example 22, 2-(pyridin-2-yl)-N-{5-[(cis-3-{5-[(pyridin-2-ylacetyl)amino]-1,3,4-thiadiazol-2-yl}cyclobutyl)methyl]-1,3,4-thiadiazol-2-yl}acetamide] returned an IC50 of 1.4 nM.

Regarding `CC(C(=O)Nc1nnc(CC2CCC(c3nnc(NC(=O)C(C)c4cccnc4)s3)C2)s1)c1cccnc1` (racemic) [Example 30, (rac)-2-(pyridin-3-yl)-N-(5-{[(cis)-3-(5-{[2-(pyridin-3-yl)propanoyl]amino}-1,3,4-thiadiazol-2-yl)cyclopentyl]methyl}-1,3,4-thiadiazol-2-yl)propanamide], 1.9 nM corresponded to half-maximal inhibition (IC50).

(Values after patent publication US10676471B2, “Cycloalkyl-linked diheterocycle derivatives” (Pfizer Inc., priority 2014, dated 2020).)
